Earlier results, collected in patent publication US20250361307A1, “COMBINATION THERAPIES FOR TREATING HYPERPROLIFERATIVE DISORDERS” (X4 Pharmaceuticals, Inc., priority 2022, published 2025).

What was measured:
[1] = target: BCL-2 (Homo sapiens, UniProt P10415); details: cited from earlier work
[2] = target: BCL-XL (Homo sapiens, UniProt Q07817); details: cited from earlier work
[3] = target: T1, BCL-w (Homo sapiens, UniProt Q92843); details: cited from earlier work
T1 sequence (Q92843 1-193): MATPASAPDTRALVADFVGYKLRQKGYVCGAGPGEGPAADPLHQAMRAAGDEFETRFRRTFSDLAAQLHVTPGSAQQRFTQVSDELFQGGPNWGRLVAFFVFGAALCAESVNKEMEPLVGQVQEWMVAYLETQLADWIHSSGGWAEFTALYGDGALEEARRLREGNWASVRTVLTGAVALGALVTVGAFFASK

[4] = target: T2, A1 (Homo sapiens, UniProt Q16548); details: cited from earlier work
T2 sequence (Q16548 1-175): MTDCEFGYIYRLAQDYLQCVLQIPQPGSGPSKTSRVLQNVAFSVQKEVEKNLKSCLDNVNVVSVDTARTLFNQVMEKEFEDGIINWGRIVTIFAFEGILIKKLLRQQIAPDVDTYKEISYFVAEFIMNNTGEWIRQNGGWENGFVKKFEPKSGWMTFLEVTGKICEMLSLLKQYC

[5] = target: MCL-1 (Homo sapiens, UniProt Q07820); details: cited from earlier work
[6] = test system: small-cell lung cancer and hematologic cell lines; details: in vivo; cited from earlier work
[7] = test system: platelets; details: cited from earlier work

MCL-1, sequence (Q07820 whole entry): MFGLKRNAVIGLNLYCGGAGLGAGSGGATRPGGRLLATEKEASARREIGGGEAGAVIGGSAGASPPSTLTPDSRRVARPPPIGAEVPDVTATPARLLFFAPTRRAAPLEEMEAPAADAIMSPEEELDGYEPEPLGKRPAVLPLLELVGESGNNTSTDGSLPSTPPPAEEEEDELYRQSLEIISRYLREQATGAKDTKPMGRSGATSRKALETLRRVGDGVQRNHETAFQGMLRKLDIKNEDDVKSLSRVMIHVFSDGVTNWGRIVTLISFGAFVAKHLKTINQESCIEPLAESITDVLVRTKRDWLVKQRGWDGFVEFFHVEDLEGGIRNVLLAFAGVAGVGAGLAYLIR
BCL-XL, sequence (Q07817 whole entry): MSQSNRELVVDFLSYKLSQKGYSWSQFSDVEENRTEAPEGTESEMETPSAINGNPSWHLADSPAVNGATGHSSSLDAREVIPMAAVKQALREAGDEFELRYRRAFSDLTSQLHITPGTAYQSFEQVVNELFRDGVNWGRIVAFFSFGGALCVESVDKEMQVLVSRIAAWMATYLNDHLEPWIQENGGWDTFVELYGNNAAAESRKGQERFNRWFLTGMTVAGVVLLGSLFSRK
BCL-2, sequence (P10415 whole entry): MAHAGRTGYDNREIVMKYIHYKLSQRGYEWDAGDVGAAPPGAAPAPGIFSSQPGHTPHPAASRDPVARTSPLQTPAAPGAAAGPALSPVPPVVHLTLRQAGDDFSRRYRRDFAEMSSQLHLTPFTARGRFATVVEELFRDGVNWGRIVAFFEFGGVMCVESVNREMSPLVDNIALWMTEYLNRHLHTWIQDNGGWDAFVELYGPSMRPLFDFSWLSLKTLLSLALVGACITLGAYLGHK

Row | Structure (SMILES) | interaction with BCL-2 [1] | interaction with BCL-XL [2] | interaction with BCL-w [3] | activity against A1 [4] | activity against MCL-1 [5] | tumor responses [6] | platelet numbers [7]
1 | CC1(C)CCC(c2ccc(Cl)cc2)=C(CN2CCN(c3ccc(C(=O)NS(=O)(=O)c4ccc(N[C@H](CCN5CCOCC5)CSc5ccccc5)c(S(=O)(=O)C(F)(F)F)c4)cc3)CC2)C1 [navitoclax] | high affinity | high affinity | high affinity | no activity | no activity | rapid and complete tumor responses | 
2 | CC1(C)CCC(CN2CCN(c3ccc(C(=O)NS(=O)(=O)c4ccc(NCC5CCOCC5)c([N+](=O)[O-])c4)c(Oc4cnc5[nH]ccc5c4)c3)CC2)=C(c2ccc(Cl)cc2)C1 [venetoclax] |  |  |  |  |  |  | little effect
